These results are taken from patent US7179816B2, “Chemical derivatives and their application as antitelomerase agents” (Aventis Pharma S.A., priority 2001, dated 2007).

Assay [1] concerns human telomerase (extract of HL60 cells enriched in telomerase activity). The experiment in a line: TRAP assay of telomerase activity (extension of oligonucleotide TS, PCR amplification). It is filed as biochemical. The conditions noted are these: compounds at 10, 1, 0.1 and 0.01 μg/ml. Here is the method:
The antitelomerase biological activity is determined by the following experimental protocol:
Preparation of the Extract Enriched in Human Telomerase Ectivity:
The leukemia line HL60 is obtained from ATCC (American Type Culture Collection, Rockville USA). The cells are cultured in suspension in RPMI 1640 medium containing L-Glutamine at 2 mM, Penicillin 200 U/ml, streptomycin 200 μg/ml, gentamycin 50 μg/ml and supplemented with 10% heat-inactivated fetal calf serum.
An aliquot of 10^5 cells is centrifuged at 3000×G and the supernatant discarded. […]
The samples are then analyzed by electrophoresis on 12% acrylamide gel in a 1×TBE buffer for 1 hour at a voltage of 200 volts, with the aid of a Novex electrophoresis system. […]
The analysis and the quantification of the reaction products are carried out with the aid of an InstantImager apparatus (Pacard).
For each compound concentration tested, the results are expressed as percentage inhibition of the reaction and calculated from the untreated enzymatic control and from the enzyme-free sample (blank) according to the following formula: (Compound Value−blank value/enzymatic control value−blank value)×100. […]
A compound is considered to be active as an antitelomerase agent when the quantity inhibiting 50% of the telomerase reaction is less than 5 μM.

Assay [2] deals with G-quadruplex of oligonucleotide GGGTTAGGGTTAGGGTTAGGG (3.5 repeats of the human telomeric motif). The experiment in a line: G-quadruplex stabilisation, fluorescence Tm of FAM+DABCYL oligonucleotide. It is filed as binding. Conditions: test product 1 μM, oligonucleotide 0.2 μM, 0.1 M LiCl, 10 mM cacodylate buffer pH 7.6; reference Tm 44° C. An excerpt:
The G-quadruplex stabilizing activity may be determined by a method using the formation of a complex with fluorescein, as described below.
All the oligonucleotides, modified or otherwise, were synthesized by Eurogentec SA, Seraing, Belgium. The oligonucleotide FAM+DABCYL carries the catalog reference OL-0371–0802. It has the sequence: […] (SEQ ID NO:1) corresponding to 3.5 repeats of the human telomeric motif (strand rich in G). The fluorescein is chemically attached to the 5′ end, and the DABCYL to the 3′ end, as described by Eurogentec. The concentration of the samples is checked by spectrophotometry, recording the absorbance spectrum between 220 and 700 nm and using the molar extinction coefficient provided by the supplier. […]
All the measurements of fluorescence were carried out on a Spex Fluorolog DM1B apparatus, using an excitation line width of 1.8 nm and an emission line width of 4.5 nm. […] The oligonucleotide alone was analyzed at 20, 30, 40, 50, 60, 70 and 80° C. The emission spectra are recorded using an excitation wavelength of 470 nm. The excitation spectra are recorded using either 515 nm or 588 nm as emission wavelength. […] A high extinction (80–90%) of the fluorescence of fluorescein at room temperature is observed, in agreement with an intramolecular folding of the oligonucleotide at 20° C. in the form of a G-quadruplex. […]

What is called IC50 is the midpoint of a concentration-inhibition curve. A lower IC50 goes with greater potency. In assay [1], `CSc1nc(NCCN(C)C)nc(Nc2ccc3nc(C)cc(N)c3c2)n1` [Example 1-1, N6-[6-(2-dimethylaminoethylamino)-4-methylsulfanyl-[1,3,5]triazin-2-yl]-2-methylquinoline-4,6-diamine] displayed an IC50 of 0.79 µM. For the same compound, the “G-4 ΔTm” value in assay [2] is 6 °C.
The corresponding values for “N6-[(6-(3-dimethylaminopropylamino)-4-diethylamino-[1,3,5]triazin-3-yl]-2-methylquinoline-4,6-diamine [Example 2-1]” are 0.9 µM and 7.9 °C.
